BindingDB's records for patent USRE49517 (Janssen Pharmaceuticals, 2023)

Biological target: Potassium voltage-gated channel subfamily H member 2 (Homo sapiens, UniProt Q12809)
Assay: Inhibition of Specific Binding to the hERG Receptor (HERGBD)
Method: Binding was terminated by filtration of the incubated membrane preparations using Filtermat B (Pharmacia, Uppsala Sweden) and a Micro Cell Harvester (Skatron, Lier, Norway). The Filtermat B had been presoaked with 1% polyethylen imine and carefully washed with 0.05 M Tris/HCl-buffer pH=7.7 after the filtration to separate free and bound radioactivity. […] The optimal amount of membrane preparation in the assay was determined and optimized for each membrane preparation separately in front of using the membranes in compound testing. […] For pipetting of the incubation mixture we routinely use the robot Biomek2000 (Fa. Beckman).

Sequence of Potassium voltage-gated channel subfamily H member 2 (Q12809 whole entry): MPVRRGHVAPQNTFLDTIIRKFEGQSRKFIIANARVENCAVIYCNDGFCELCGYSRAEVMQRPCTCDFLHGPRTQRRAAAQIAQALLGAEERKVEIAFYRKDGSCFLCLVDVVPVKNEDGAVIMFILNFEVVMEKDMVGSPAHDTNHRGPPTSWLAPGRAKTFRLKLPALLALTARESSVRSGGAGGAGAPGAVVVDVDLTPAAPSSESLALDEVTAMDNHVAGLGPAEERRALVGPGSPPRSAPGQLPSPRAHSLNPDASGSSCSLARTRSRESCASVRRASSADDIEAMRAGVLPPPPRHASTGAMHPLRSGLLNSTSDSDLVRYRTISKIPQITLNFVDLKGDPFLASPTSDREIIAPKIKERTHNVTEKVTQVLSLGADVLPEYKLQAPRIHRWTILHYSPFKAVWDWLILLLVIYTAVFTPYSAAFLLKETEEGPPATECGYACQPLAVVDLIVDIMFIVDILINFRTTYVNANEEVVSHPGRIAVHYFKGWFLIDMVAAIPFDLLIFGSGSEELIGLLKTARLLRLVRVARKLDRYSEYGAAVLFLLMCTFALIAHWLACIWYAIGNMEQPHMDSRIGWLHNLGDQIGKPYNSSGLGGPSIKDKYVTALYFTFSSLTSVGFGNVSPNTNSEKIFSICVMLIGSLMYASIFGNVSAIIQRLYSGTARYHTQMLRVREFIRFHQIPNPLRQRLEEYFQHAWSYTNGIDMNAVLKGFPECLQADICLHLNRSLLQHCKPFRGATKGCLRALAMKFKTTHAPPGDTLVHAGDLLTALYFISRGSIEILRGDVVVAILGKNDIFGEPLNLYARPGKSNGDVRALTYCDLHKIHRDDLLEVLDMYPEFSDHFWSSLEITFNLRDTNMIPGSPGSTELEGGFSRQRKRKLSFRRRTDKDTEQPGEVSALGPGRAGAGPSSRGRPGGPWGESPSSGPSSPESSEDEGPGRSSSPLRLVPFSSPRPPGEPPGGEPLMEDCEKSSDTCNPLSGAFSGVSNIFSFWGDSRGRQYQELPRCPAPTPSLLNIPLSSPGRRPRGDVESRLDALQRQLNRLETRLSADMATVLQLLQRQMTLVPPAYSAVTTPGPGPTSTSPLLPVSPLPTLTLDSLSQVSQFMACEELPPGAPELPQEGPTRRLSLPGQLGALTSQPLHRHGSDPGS

Structure (SMILES): COc1cc(Cl)ccc1-c1cnn(Cc2ccn(C)n2)c1 [USRE49517, Example 67]
- IC50: 63.3 µM
